Measurements published in patent publication US20050107616A1, “Alpha-ketoamide derivatives as cathepsin k inhibitors” (priority 2001, published 2005).

Experiments:
[1] = target: T1, rat cathepsin K (Rattus norvegicus, UniProt O35186); assay: Cathepsin K inhibition assay, fluorogenic substrate Cbz-Phe-Arg-AMC, progress curve method; assay type: biochemical; details: Table 2; rat recombinant enzyme, pH 5.5, 30° C., 10 μM substrate; read-out: rCat K Ki
T1 construct: The proform of cathepsin K was converted to mature cathepsin K by brief exposure to pH 4; made in house; host or cells: baculovirus; Trichoplusia ni High Five cells (virus raised in Sf-9)
T1 sequence (O35186 115-329): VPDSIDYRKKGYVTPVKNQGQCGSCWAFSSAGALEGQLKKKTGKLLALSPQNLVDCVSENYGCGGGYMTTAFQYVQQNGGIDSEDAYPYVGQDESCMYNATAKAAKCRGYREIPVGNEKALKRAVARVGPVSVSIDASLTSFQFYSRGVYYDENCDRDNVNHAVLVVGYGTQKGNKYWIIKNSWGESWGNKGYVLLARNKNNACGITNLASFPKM
Method: (§1) All assays for cathepsin K were carried out with human and rat recombinant enzyme. Assays for cathepsins S Et V were also carried out with human recombinant enzyme. Assays for human cathepsins B. H. and L were carried out with enzyme, purchased from Athens Research and Technology, Inc., prepared from human liver tissue. Standard assay conditions for the determination of kinetic constants used a fluorogenic peptide substrate, typically (5S,8S)-13-amino-5-benzyl-13-imino-3-methylene-N-(4methyl-2-oxo-2H-chromen-7-yl)-6-oxo-1-phenyl-2-oxa-4,7,12-triazatridecane-8-carboxamide (Cbz-Phe-Arg-AMC), and were determined in 100 mM sodium acetate at pH 5.5 containing 10 mM dithiothreitol and 120 mM sodium chloride. A stock substrate solution of Cbz-Phe-Arg-AMC was prepared at a concentration of 50 mM in dimethyl sulfoxide. This substrate was diluted into the assay for a final substrate concentration of 10 μM in the rat cathepsin K, human cathepsin K, and human cathepsin B assays; a final substrate concentration of 5 μM in the human cathepsin L assay; and a final substrate concentration of 2 μM in the human cathepsin V assay.
(§2) All assays contained 10% dimethyl sulfoxide. […] All assays were conducted at 30° C. Product fluorescence (excitation at 360 nm; emission at 440 nm, (except cathepsin H which used excitation at 340 nm; emission at 420 nm)) was monitored with a PerSeptive Biosystems Cytofluor II fluorescence plate reader. Product progress curves were generated over 2.3 h monitoring the formation of 7-amino-4-methylcoumarin product (or β-naphthalamide for cathepsin H).
Scale-Up and Fermentation: The method of O'Reilly et al. (1994) was used for baculovirus expression with the following details. Two liters of Spodoptera frugiperda (Sf-9) cells (ATCC) were grown in Grace's Supplemented medium (Life Technologies) supplemented with 2 g/L glucose, 10% a fetal bovine serum (HyClone) and 0.10% pluronic F-68 (Life Technologies). Cells were grown in a 6 L shake flask at 150 RPM at 28° C. for 24 h to a density of 10^6 cells/mL, and then infected at a multiplicity of infection (MOI) of 0.1. The cells continued to grow for 72 h post-infection, before the virus was harvested by centrifugation at 1400× g for 30 min. Virus was titered as described (Summers and Smith, 1987).
One and one-half liters of Trichoplusia ni (T. ni) High Five (TM) cells [JRH Biosciences, Woodland, Calif. (adapted to suspension and serum-free medium)] grown in Excell 405 (TM) medium (JRH Biosciences) with 50 ug/mL gentamicin (Life Technologies) were added to a 15 L stirred tank reactor (Quark Enterprises, Inc) at a density of ˜0.5×10^6 cells/mL The cells were grown for 24 h at 28° C., 50 RPM, and 50% dissolved oxygen. Cells were then infected at a density of ˜10^6 cells/mL with an MOI of 1 and grown for 48 h post-infection. Media were separated from cells at a rate of 1 L/min using the Centritech 100 (TM) continuous-flow centrifuge (DuPont) operating at 200× g.
Protein Purification: Media (human and rat) were filtered through a Whatman 3 filter, and then loaded onto a 25 mL Poros HS II (26 mm×47 mm) cation exchange column equilibrated in 25 mM sodium acetate at pH 5.5 (equilibration buffer). The column was washed until the absorbance reached the baseline value, and then the protein was eluted with a linear gradient from 0-2 M sodium chloride in the equilibration buffer. Column fractions were analyzed by SDS-PAGE, N-terminal sequencing, and mass spectrometry. Fractions containing the proform of cathepsin K were pooled and frozen at −80° C. The proform was concentrated in an Amicon Centriprep 10 and fractionated with a Superdex 75 column (26 mm×600 mm, Pharmacia) equilibrated in 400 mM sodium chloride, 25 mM sodium acetate at pH 5.5.
Cathepsin K Activation: The proform of cathepsin K was converted to mature cathepsin K by brief exposure to pH 4 in the presence of 5 mM L-cysteine. […]

[2] = target: human cathepsin V (Homo sapiens, UniProt O60911); assay: Cathepsin V inhibition assay, fluorogenic substrate Cbz-Phe-Arg-AMC; assay type: biochemical; details: Table 2; human recombinant enzyme, pH 5.5, 30° C., 2 μM substrate; read-out: hCat V Ki
Method: as §1, §2
Potential inhibitors were evaluated using the progress curve method. Assays were carried out in the presence of variable concentrations of test compound. Reactions were initiated by addition of buffered solutions of inhibitor and substrate to enzyme. Data analysis was conducted according to one of two procedures depending on the appearance of the progress curves in the presence of inhibitors. For those compounds whose progress curves were linear, the enzymatic activity (RATE) was plotted against the concentration of test compound, including inhibitor concentration of zero ([I]=0), and the IC50 determined from a fit of equation 1 to the data, RATE=Vmax/(1+([I]/IC50)) (1) where Vmax is the best fit estimate of the maximal enzymatic activity. Ki values were calculated from IC50 values using equation 2 assuming a competitive model. [formula]

Chain of human cathepsin V (O60911 114-334): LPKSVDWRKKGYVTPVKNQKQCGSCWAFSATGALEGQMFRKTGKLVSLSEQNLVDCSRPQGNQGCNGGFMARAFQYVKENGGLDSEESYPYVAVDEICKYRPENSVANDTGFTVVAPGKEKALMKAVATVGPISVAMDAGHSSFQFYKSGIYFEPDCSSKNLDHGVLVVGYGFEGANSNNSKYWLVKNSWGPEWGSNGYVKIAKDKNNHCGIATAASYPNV

| Ki [1] [nM] | Ki [2] [nM] | SMILES |
| --- | --- | --- |
| 1 to 100 | 1 to 100 | CCCC[C@H](NC(=O)O[C@H](c1nnc(-c2ccc(C(F)(F)F)cc2)o1)C(C)(C)C)C(=O)C(=O)Nc1ccn[nH]1 [Example 38, (1S)-2,2-dimethyl-1-{5-[4-(trifluoromethyl)phenyl]-1,3,4-oxadiazol-2-yl}propyl(1S)-1-[oxo(1H-pyrazol-5-ylamino)acetyl]pentylcarbamate] |
| 0.01 to 1 | 0.01 to 1 | CCCC[C@H](NC(=O)O[C@H](Cn1cnc(-c2ccc(C(F)(F)F)cc2)c1)C(C)(C)C)C(=O)C(=O)Nc1ccn[nH]1 [Example 7, (1S)-2,2-dimethyl-1-({4-[4-(trifluoromethyl)phenyl]-1H-imidazol-1-yl}methyl)propyl(1S)-1-[oxo(1H-pyrazol-5-ylamino)acetyl]pentylcarbamate] |
| 0.01 to 1 | 0.01 to 1 | CCCC[C@H](NC(=O)O[C@H](Cn1cnc2cc(Cl)c(Cl)cc21)C(C)(C)C)C(=O)C(=O)Nc1ccn[nH]1 [Example 37, (1S)-1-[(5,6-dichloro-1H-benzimidazol-1-yl)methyl]-2,2-dimethylpropyl(1S)-1-[oxo(1H-pyrazol-5-ylamino)acetyl]pentylcarbamate] |
| 1 to 100 | 1 to 100 | CCCC[C@H](NC(=O)O[C@H](c1nnc(-c2ccc(C(F)(F)F)cc2)o1)C(C)(C)C)C(=O)C(=O)NN1CCOC1=O [Example 39, (1S)-2,2-dimethyl-1-{5-[4-(trifluoromethyl)phenyl]-1,3,4-oxadiazol-2-yl}propyl(1S)-1-{oxo[(2-oxo-1,3-oxazolidin-3-yl)amino]acetyl}pentylcarbamate] |
| 100 to 10000 | 100 to 10000 | CCCC[C@H](NC(=O)O[C@H](Cc1nnc(-c2ccc(F)cc2)o1)C(C)(C)C)C(=O)C(=O)Nc1ccnn1C (stereo in doubt) [Example 22, (1R)-1-{[5-(4-fluorophenyl)-1,3,4-oxadiazol-2-yl]methyl}-2,2-dimethylpropyl(1S)-1-[[(1-methyl-1H-pyrazol-5-yl)amino](oxo)acetyl]pentyl carbamate] |
| 0.01 to 1 | 0.01 to 1 | CCCC[C@H](NC(=O)O[C@H](Cn1ccc(-c2ccc(C(F)(F)F)cc2)n1)C(C)(C)C)C(=O)C(=O)Nc1ccn[nH]1 [Example 1] |
| 1 to 100 | 1 to 100 | CCCC[C@H](NC(=O)O[C@H](Cn1cnc(-c2ccc(C(F)(F)F)cc2)c1)C(C)(C)C)C(=O)C(=O)Nc1ccnn1C1CCC1 [Example 35, (1S)-2,2-dimethyl-1-({4-[4-(trifluoromethyl)phenyl]-1H-imidazol-1-yl}methyl)propyl(1S)-1-[[(1-cyclobutyl-1H-pyrazol-5-yl)amino](oxo)acetyl]pentylcarbamate] |
